Patent US11813279B2, “Compositions for cancer therapy and methods” (AIM IMMUNOTECH INC., priority 2018, dated 2023)
Like-named read-outs stand apart in the source and are kept apart here. Marks after values point to notes of the source that are not given here.

Tests used:
pancreatic carcinoma [1] = details: second line, cited from earlier work
pancreatic carcinoma [2] = assay: Second line therapy following progression on FOLFIRINOX (literature studies); format: in vivo, human; details: Overall (mean)
Excerpt: Overall Survival (OS) increased from 6.8 months with Gemcitabine to 11.1 months with FOLFIRINOX (p<0.001). However, the Complete Response Rate (CR) was only 0.6%.

[3] = tested on: locally advanced and metastatic pancreatic carcinoma; details: first line therapy; n = 171 per arm; cited from earlier work
pancreatic tumors = format: in vivo, mice; details: n = 8 each
Excerpt: This is highly relevant for improving the likelihood of an antitumor response to checkpoint blockade.
See, FIG. 4, panels labeled “Time-to-tumor progression.”

B16-F10 melanoma tumors = details: Day 30, n = 10; for Number of Complete Responses (CR): RECIST v1.1
Procedure: Rintatolimod together with anti-PD-L1 antibodies were tested for anti-tumor activity against established subcutaneous B16 melanoma tumors in C57BL/6 mice. Mice (10 animals per group) were inoculated with 0.4×10E6 B16-F10 tumor cells in their shaved rear flanks. Seven days later (when tumors reached 0.3 to 0.5 cm in their largest diameter), mice were randomized for tumor sizes, and individually tagged and were allocated to the following six treatment groups: • No treatment (negative controls) • Rintatolimod alone 100 μg/dose 4× • Rintatolimod alone 250 μg/dose 4× • Anti-PD-L1 mAb alone • Rintatolimod 100 μg/dose 4× plus anti-PD-L1 mAb • Rintatolimod 250 μg/dose 4× plus anti-PD-L1 mAb
Rintatolimod was injected intravenously at 100 or 250 micrograms/dose and was repeated 4 times, 5 days apart. Anti-PD-L1 mAb (clone 10F.9G2, BioXCell) was administered intraperitoneally on Days 1 and 3 after each rintatolimod injection at a 200 microgram/dose. Tumors were measured 3 times per week using a set of calipers, taking measurement of 2 opposing diameters and were recorded as tumor areas.
Results were presented as tumor sizes for individual mice throughout time of therapy, average tumor size in each group and survival up to Day 30 (time to euthanasia).
[sequence] and anti-PD-L1 antibodies were tested for anti-tumor activity against established subcutaneous B16 melanoma tumors in C57BL/6 mice. Briefly, mice (10 animals per group) were inoculated with 0.4×10E6 (i.e., 400,000) B16-F10 tumor cells in their shaved rear flanks. Seven days later, mice were randomized to six treatment groups as follows: (Group 1) No treatment (negative controls); (Group 2) [sequence] alone 100 μg/dose 4λ; (Group 3) [sequence] alone 250 μg/dose 4λ; (Group 4) Anti-PD-L1 mAb alone; (Group 5) [sequence] 100 μg/dose 4× plus anti-PD-L1 mAb; (Group 6) [sequence] 250 μg/dose 4× plus anti-PD-L1 mAb. mAb refers to monoclonal antibody.
[sequence] was injected IV at 100 or 250 μg/dose 4 times, 5 days apart. Anti-PD-L1 mAb was administered IP on Days 1 and 3 after each [sequence] dose at 200 μg/dose. Tumors were measured 3 times per week using calipers, measuring 2 opposing diameters. […] Results were presented as tumor sizes for individual mice throughout time of therapy up to Day 30.

[4] = tested on: human renal cell carcinoma xenografts (786-0); details: Hubbell, 1990, cited from earlier work
[5] = tested on: human renal cell carcinoma xenografts (786-0); assay: Human renal cell carcinoma (786-0) xenografts in nude mice; format: in vivo; details: monotherapy
[6] = tested on: human bladder tumor xenografts; assay: Human bladder tumor xenografts in nude mice; format: in vivo

For Nc1ccn([C@@H]2O[C@H](CO)[C@@H](O)C2(F)F)c(=O)n1 [Gemcitabine], the “Progression Free Survival (PFS) (months)” value (pancreatic carcinoma [1]; Gilabert, et al. 2017, 72 patients) is listed as 2.5 months, the “Overall Survival (OS) (months)” value (pancreatic carcinoma [1]; Viaud, et al 2017, 96 patients) is listed as 3.7 months and the “Progression Free Survival (PFS) (months)” value (pancreatic carcinoma [1]; Viaud, et al 2017) is listed as 2.1 months. For the same molecule, the “Overall Survival (OS) (months)” value (pancreatic carcinoma [1]; da Rocha, et al. 2015, 20 patients) was 5.7 months, the “Progression Free Survival (PFS) (months)” value (pancreatic carcinoma [1]; da Rocha, et al. 2015) was 2.0 months and the “Partial Response Rates (PR) (%)” value (pancreatic carcinoma [2]; weighted average) was 6.4%*. The “Progression Free Survival (PFS) (months)” value (pancreatic carcinoma [2]; weighted average) was 2.24* months, the “Overall Survival (OS) (months)” value (pancreatic carcinoma [2]; weighted average based on n in each study) was 4.05* months and the “Complete Response Rates (CR) (%)” value [3] was “(0) %”. For the same molecule, the “Complete Response Rates (CR) n” value [3] was 0 n, the “Overall Survival (OS) (months)” value [3] was 6.8 months and the “Partial Response Rates (PR) (%)” value [3] was “(9.4) %”. The “Partial Response Rates (PR) n” value [3] was 16 n and the “Progression Free Survival (PFS) (months)” value [3] was 3.3 months.
In the case of “polyriboinosinic: polyribocytidylic(12:1)uridylic acid”, the “Increased Survival Over Control” value (pancreatic tumors; difference to control (33)) is reported as 0 days, the “Time to Progression Median-Days” value (pancreatic tumors; initial results) is reported as 33 days and the “Number of Partial Responses (PR)” value (B16-F10 melanoma tumors; rintatolimod 100 μg/dose 4× IV) is reported as 0. The “Total # Tumor Responses CR + PR” value (B16-F10 melanoma tumors; rintatolimod 100 μg/dose 4× IV) was 0, the “Number of Complete Responses (CR)” value (B16-F10 melanoma tumors; rintatolimod 100 μg/dose 4× IV) was 0 and the “Number of Partial Responses (PR)” value (B16-F10 melanoma tumors; rintatolimod 250 μg/dose 4× IV) was 0. For the same molecule, the “Total # Tumor Responses CR + PR” value (B16-F10 melanoma tumors; rintatolimod 250 μg/dose 4× IV) was 0, the “Number of Complete Responses (CR)” value (B16-F10 melanoma tumors; rintatolimod 250 μg/dose 4× IV) was 0 and the tumor growth inhibition ([4]; p<0.001) was “statistically significant”. The survival ([4]; p<0.002) was “statistically significant”, the tumor regression [5] was “tumor regression was observed in each mouse” and the “mice free of residual tumor” value ([5]; while 100% of the control group had died) was 90%. For the same molecule, the “growth of human bladder tumor xenografts” value [6] was “significantly inhibited”.
